According to patent US20230043204A1, “DIHYDROERGOTAMINE MESYLATE FORMULATIONS AND PRE-FILLED INJECTORS FOR THERAPEUTIC DELIVERY OF THE SAME” (Scienture, Inc., priority 2019, published 2023):
Structures can show the parent of a compound that is named as a salt.

What was measured:
Type in all cases: physicochemical
[1] = Solubility of DHE in solvents (observation); conditions: in DMSO, benzyl alcohol, ethanol, propylene glycol, and captisol
Source text: Based on this discovery and the solubility and stability data generated above for various solvents, preservatives, and antioxidants, additional stable formulations are included as non-limiting examples in Table 15. Prophetic formulations are included as non-limiting examples in Tables 16 and 17.

[2] = HPLC DHE and specific impurity analysis of formulations O and P on storage; conditions: 0 Time
Experimental: (§1) The examples herein describe analysis of formulations comprising DHE, and analysis of impurity content. Unless specifically indicated otherwise, analysis was carried out by HPLC according to the parameters in Tables 2-4.
(§2) Mobile Phase A in Tables 3 and 4 contains 2.75 g of sodium 1-heptane sulfonate in 1000 mL Purified Water, pH adjusted to 2.0 with o-phosphoric acid. Mobile Phase B in Tables 3 and 4 contains 200 mL of Mobile Phase A mixed with 800 mL of acetonitrile.
The formulation of Table 11 (“P”) was prepared for use in canine studies. An additional formulation was prepared (“O”), replacing DMSO of formula P with an equal amount of propylene glycol.

[3] = 5 mg/mL DHE mesylate stability in solvents suitable for parenteral injection (HPLC); design: Total Impurities Initial: unit not given here; conditions: for DHE (mg/mL) After 1 Week / Total Impurities After 1 Week: 1 week 40° C. sealed vial
Experimental: as §1, §2
Solvents that are suitable for parenteral injections were selected, and solutions of 5 mg/mL DHE mesylate in each (Table 5) were stored at 40° C. in sealed vials. Following 1 week of storage, the remaining amount of DHE was determined by HPLC, indicating solvents compatible with stable DHE storage.

[4] = Stability of formulations L, M, N at accelerated conditions (40° C., sealed vials; HPLC); conditions: Initial
Experimental: as §1, §2
Additional formulations “L”, “M”, and “N” were prepared according to Table 9 and analyzed for the concentration of DHE and impurities following one day in sealed vials at 40° C. Specific impurities were analyzed after storage in sealed vials after one and two weeks at 40° C. (Table 10).

[5] = HPLC analysis of formulation J after one day of storage at room temperature; conditions: API sample as comparison
Experimental: as §1, §2
After one day of storage at room temperature, formulation J was analyzed for DHE and impurities, as shown in the last two rows of Table 8. Testing for specific impurities relative to a sample of API (DHE mesylate) yielded the results of Table 9.

CN1C[C@H](C(=O)N[C@]2(C)O[C@@]3(O)[C@@H]4CCCN4C(=O)[C@H](Cc4ccccc4)N3C2=O)C[C@@H]2c3cccc4[nH]cc(c34)C[C@H]21 [DHE, (5′α)-9,10-dihydro-12′-hydroxy-2′-methyl-5′-(phenylmethyl)-ergotaman-3′,6′,18-trione]
solubility (observation in words) [1]: highly soluble

CN1C[C@H](C(=O)N[C@]2(C)O[C@@]3(O)[C@@H]4CCCN4C(=O)[C@H](Cc4ccccc4)N3C2=O)C[C@@H]2c3cccc4[nH]cc(c34)C[C@H]21 [DHE Mesylate, ergotaman-3′,6′,19-trione, 9,10-dihydro-12′-hydroxy-2′-methyl-5′-(phenylmethyl)-, (5′α)-, monomethane-sulfonate]
% Total Impurities [2]: 0.2%
impurity peak, RRT 0.87 [2]: 0
impurity peak, RRT 0.92 [2]: 0.1
impurity peak, RRT 1.21 (Imp-B) [2]: 0.1
DHE (mg/mL) Initial ([3]; 5 mg/mL solution in 15% solution of Kollidon 30): 1.7 mg/mL
DHE (mg/mL) Initial ([3]; 5 mg/mL solution in Alcohol, USP): 5 mg/mL
DHE (mg/mL) Initial ([3]; 5 mg/mL solution in Benzyl Alcohol): 4.9 mg/mL
DHE (mg/mL) Initial ([3]; 5 mg/mL solution in DMSO): 5.1 mg/mL
DHE (mg/mL) Initial ([3]; 5 mg/mL solution in Glycerin, USP): 1.3 mg/mL
DHE (mg/mL) Initial ([3]; 5 mg/mL solution in Glycerin:Ethanol (1:1)): 5.1 mg/mL
DHE (mg/mL) Initial ([3]; 5 mg/mL solution in N,N Dimethyl Acetamide): 5.1 mg/mL
DHE (mg/mL) Initial ([3]; 5 mg/mL solution in N-methyl pyrrolidone): 5.1 mg/mL
DHE (mg/mL) Initial ([3]; 5 mg/mL solution in PEG 200): 4.3 mg/mL
DHE (mg/mL) Initial ([3]; 5 mg/mL solution in Propylene Glycol): 4.8 mg/mL
DHE (mg/mL) Initial ([3]; 5 mg/mL solution in Purified water): 4.1 mg/mL
DHE (mg/mL) After 1 Week ([3]; 15% solution of Kollidon 30): 3.7 mg/mL
Total Impurities After 1 Week ([3]; 15% solution of Kollidon 30): 9.95
Total Impurities Initial ([3]; 15% solution of Kollidon 30): 0.24
DHE (mg/mL) After 1 Week ([3]; Alcohol, USP): 5 mg/mL
Total Impurities After 1 Week ([3]; Alcohol, USP): 0.38
Total Impurities Initial ([3]; Alcohol, USP): 0.24
DHE (mg/mL) After 1 Week ([3]; Benzyl Alcohol): 4.2 mg/mL
Total Impurities After 1 Week ([3]; Benzyl Alcohol): 2.51
Total Impurities Initial ([3]; Benzyl Alcohol): 9.58
DHE (mg/mL) After 1 Week ([3]; DMSO): 5 mg/mL
Total Impurities After 1 Week ([3]; DMSO): 0.47
Total Impurities Initial ([3]; DMSO): 0.26
DHE (mg/mL) After 1 Week ([3]; Glycerin, USP): 6 mg/mL
Total Impurities After 1 Week ([3]; Glycerin, USP): 0.33
Total Impurities Initial ([3]; Glycerin, USP): 0.21
DHE (mg/mL) After 1 Week ([3]; Glycerin:Ethanol (1:1)): 5.1 mg/mL
Total Impurities After 1 Week ([3]; Glycerin:Ethanol (1:1)): 0.4
Total Impurities Initial ([3]; Glycerin:Ethanol (1:1)): 0.28
DHE (mg/mL) After 1 Week ([3]; N,N Dimethyl Acetamide): 5.4 mg/mL
Total Impurities After 1 Week ([3]; N,N Dimethyl Acetamide): 0.8
Total Impurities Initial ([3]; N,N Dimethyl Acetamide): 0.13
DHE (mg/mL) After 1 Week ([3]; N-methyl pyrrolidone): 4.8 mg/mL
Total Impurities After 1 Week ([3]; N-methyl pyrrolidone): 1.14
Total Impurities Initial ([3]; N-methyl pyrrolidone): 0.33
DHE (mg/mL) After 1 Week ([3]; PEG 200): 4.9 mg/mL
Total Impurities After 1 Week ([3]; PEG 200): 1.36
Total Impurities Initial ([3]; PEG 200): 0.25
DHE (mg/mL) After 1 Week ([3]; Propylene Glycol): 5.1 mg/mL
Total Impurities After 1 Week ([3]; Propylene Glycol): 0.42
Total Impurities Initial ([3]; Propylene Glycol): 0.26
DHE (mg/mL) After 1 Week ([3]; Purified water): 4.4 mg/mL
Total Impurities After 1 Week ([3]; Purified water): 3.5
Total Impurities Initial ([3]; Purified water): 0.24
% Total Impurities [4]: 0.2%
impurity peak, RRT 0.87 [4]: 0
impurity peak, RRT 0.92 [4]: 0.1
impurity peak, RRT 1.22 (Impurity B) [4]: 0.1
Total Impurities following 1 day of storage [5]: 0.19
impurity peak, RRT 0.75 [5]: 0.03
impurity peak, RRT 0.84 (Imp-C) [5]: 0.02
impurity peak, RRT 0.9 [5]: 0.03
impurity peak, RRT 1.24 [5]: 0.11
